Consider 16 compounds from PubChem BioAssay (NCI).

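How tested: cells in 96-well plates exposed to compound for 48 hours at five concentrations. At the TGI there is no net growth.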

The subject of one experiment is SF-295 CNS. Briefly: NCI anticancer screen, dose series, 48 h.
Regarding `COC(=O)N1C[C@@]2(C=CC3(CC2)OCCO3)c2ccccc21`, the TGI was more than 100 µM.
As for `COc1ccccc1C1CC(=O)CC(c2ccccc2OC)C12C(=O)NC(=S)NC2=O` (stereo not drawn), the TGI was more than 100 µM.
`COc1cc(S(=O)(=O)Nc2ccc(-c3csc(N4C(=O)CSC4c4cccs4)n3)cc2)ccc1Cl` (stereo not drawn) showed a TGI of more than 100 µM.
The same measure, in the same setting: the value for `NCCCCNCCCN1CC1` was more than 100 µM; that for `O=c1n(/N=C/c2ccccc2)c(=O)n2n1C1C=CC2CC1` was more than 100 µM.
`COc1ccc(C2c3cc4c(cc3C(O)C3CCC(=O)N23)OCO4)cc1` (stereo not drawn) displayed a TGI of more than 100 µM.
On the same count and under the same terms, the value for `COc1cc2c(cc1OC)-c1[nH]c3ccc(C#N)cc3c1CC(=O)N2` was more than 100 µM; that for `NCCCNCCCNCCCN` was more than 100 µM; that for `Cn1nc(Cc2ccc(Cl)cc2)n(N)c1=O` was more than 100 µM.
In turn, `COc1cc(Br)c(OC)c2c(OC)cc(C)cc12` displayed a TGI of more than 100 µM.
Still for that read-out and setting: the value for `CCOC(=O)/C(N=Nc1ccc(-n2c(C)nc3ccccc3c2=O)cc1)=C(/C)O` was more than 100 µM; that for `CCc1nnc(CC)n1NCCCC(=O)O` was more than 100 µM; that for `COc1ccc(OC)c2sc(N3C(=O)/C(=C/Cc4ccco4)N=C3c3ccccc3)nc12` was more than 100 µM.
Same read-out and setting: the value for `CC(C)c1ccccc1SC1CC(=O)CC(Sc2ccccc2C(C)C)C12O[C@H](c1ccccc1)[C@@H](c1ccccc1)O2` (stereo partly drawn) was more than 100 µM; that for `CSC1=N[C@H](c2ccccc2)CS1` was more than 100 µM.

The subject of the next experiment is K-562 leukemia. Briefly: NCI anticancer screen, dose series, 48 h.
As for `COC(=O)N1C[C@@]2(C=CC3(CC2)OCCO3)c2ccccc21`, the TGI was more than 100 µM.
For the compound `COc1ccccc1C1CC(=O)CC(c2ccccc2OC)C12C(=O)NC(=S)NC2=O` (stereo not drawn), the TGI was more than 100 µM.
On the same count and under the same terms, the value for `COc1cc(S(=O)(=O)Nc2ccc(-c3csc(N4C(=O)CSC4c4cccs4)n3)cc2)ccc1Cl` (stereo not drawn) was 95.6 µM.
The same measure, in the same setting: the value for `NCCCCNCCCN1CC1` was more than 26.4 µM; that for `O=c1n(/N=C/c2ccccc2)c(=O)n2n1C1C=CC2CC1` was more than 100 µM.
Still for that read-out and setting: the value for `COc1ccc(C2c3cc4c(cc3C(O)C3CCC(=O)N23)OCO4)cc1` (stereo not drawn) was more than 100 µM; that for `NCCCNCCCNCCCN` was 72.9 µM.
The compound `Cn1nc(Cc2ccc(Cl)cc2)n(N)c1=O` registered a TGI of more than 100 µM.
Consider `COc1cc(Br)c(OC)c2c(OC)cc(C)cc12`, for which the TGI is more than 100 µM.
On to `CCOC(=O)/C(N=Nc1ccc(-n2c(C)nc3ccccc3c2=O)cc1)=C(/C)O`, for which the TGI was more than 100 µM.
As to `CCc1nnc(CC)n1NCCCC(=O)O`, the TGI is more than 100 µM.
As for `COc1ccc(OC)c2sc(N3C(=O)/C(=C/Cc4ccco4)N=C3c3ccccc3)nc12`, the TGI is more than 100 µM.
`CSC1=N[C@H](c2ccccc2)CS1` had a TGI of more than 100 µM.

In the next experiment the test system is OVCAR-3 ovarian. Briefly: NCI anticancer screen, dose series, 48 h.
Compound `Nc1ccn(C2CC(O)C(COP(O)(=S)OC3CC(n4ccc(N)nc4=O)OC3CO)O2)c(=O)n1` (stereo not drawn) showed a TGI of more than 100 µM.
Still for that read-out and setting: the figure for `COC(=O)N1C[C@@]2(C=CC3(CC2)OCCO3)c2ccccc21` is more than 100 µM; for `COc1ccccc1C1CC(=O)CC(c2ccccc2OC)C12C(=O)NC(=S)NC2=O` (stereo not drawn) it is more than 100 µM; for `COc1cc(S(=O)(=O)Nc2ccc(-c3csc(N4C(=O)CSC4c4cccs4)n3)cc2)ccc1Cl` (stereo not drawn) it is more than 100 µM.
`NCCCCNCCCN1CC1`: the TGI amounted to 8.98 µM.
Take `O=c1n(/N=C/c2ccccc2)c(=O)n2n1C1C=CC2CC1`: the TGI is more than 100 µM.
Still for that read-out and setting: the value for `COc1ccc(C2c3cc4c(cc3C(O)C3CCC(=O)N23)OCO4)cc1` (stereo not drawn) was more than 100 µM; that for `NCCCNCCCNCCCN` was more than 100 µM; that for `COc1cc(Br)c(OC)c2c(OC)cc(C)cc12` was more than 100 µM.
The same measure, in the same setting: the value for `CCOC(=O)/C(N=Nc1ccc(-n2c(C)nc3ccccc3c2=O)cc1)=C(/C)O` was 53.1 µM; that for `CCc1nnc(CC)n1NCCCC(=O)O` was more than 100 µM.
The compound `COc1ccc(OC)c2sc(N3C(=O)/C(=C/Cc4ccco4)N=C3c3ccccc3)nc12` displayed a TGI of more than 100 µM.
Still for that read-out and setting: the figure for `CC(C)c1ccccc1SC1CC(=O)CC(Sc2ccccc2C(C)C)C12O[C@H](c1ccccc1)[C@@H](c1ccccc1)O2` (stereo partly drawn) is more than 100 µM; for `CSC1=N[C@H](c2ccccc2)CS1` it is more than 100 µM.

The next experiment relates to HT29 colon. Briefly: NCI anticancer screen, dose series, 48 h.
With `Nc1ccn(C2CC(O)C(COP(O)(=S)OC3CC(n4ccc(N)nc4=O)OC3CO)O2)c(=O)n1` (stereo not drawn), the TGI was more than 100 µM.
For `COC(=O)N1C[C@@]2(C=CC3(CC2)OCCO3)c2ccccc21`, the TGI was more than 100 µM.
Still for that read-out and setting: the figure for `COc1ccccc1C1CC(=O)CC(c2ccccc2OC)C12C(=O)NC(=S)NC2=O` (stereo not drawn) is more than 100 µM.
As to `COc1cc(S(=O)(=O)Nc2ccc(-c3csc(N4C(=O)CSC4c4cccs4)n3)cc2)ccc1Cl` (stereo not drawn), the TGI is more than 100 µM.
As to `NCCCCNCCCN1CC1`, the TGI was more than 42 µM.
The same measure, in the same setting: the value for `O=c1n(/N=C/c2ccccc2)c(=O)n2n1C1C=CC2CC1` was more than 100 µM; that for `COc1ccc(C2c3cc4c(cc3C(O)C3CCC(=O)N23)OCO4)cc1` (stereo not drawn) was more than 100 µM.
Compound `COc1cc2c(cc1OC)-c1[nH]c3ccc(C#N)cc3c1CC(=O)N2` registered a TGI of more than 100 µM.
`NCCCNCCCNCCCN`: the TGI is more than 100 µM.
`Cn1nc(Cc2ccc(Cl)cc2)n(N)c1=O` came in with a TGI of more than 100 µM.
Consider `COc1cc(Br)c(OC)c2c(OC)cc(C)cc12`, for which the TGI was more than 100 µM.
`CCOC(=O)/C(N=Nc1ccc(-n2c(C)nc3ccccc3c2=O)cc1)=C(/C)O` came in with a TGI of more than 100 µM.
For `CCc1nnc(CC)n1NCCCC(=O)O`, the TGI is more than 100 µM.
As to `COc1ccc(OC)c2sc(N3C(=O)/C(=C/Cc4ccco4)N=C3c3ccccc3)nc12`, the TGI was more than 100 µM.
Same read-out and setting: the value for `CC(C)c1ccccc1SC1CC(=O)CC(Sc2ccccc2C(C)C)C12O[C@H](c1ccccc1)[C@@H](c1ccccc1)O2` (stereo partly drawn) was more than 100 µM; that for `CSC1=N[C@H](c2ccccc2)CS1` was more than 100 µM.

For another experiment, the system named is HS 578T breast. Nature of the experiment: NCI anticancer screen, dose series, 48 h.
`Nc1ccn(C2CC(O)C(COP(O)(=S)OC3CC(n4ccc(N)nc4=O)OC3CO)O2)c(=O)n1` (stereo not drawn): the TGI was more than 100 µM.
Same read-out and setting: the figure for `COc1cc(S(=O)(=O)Nc2ccc(-c3csc(N4C(=O)CSC4c4cccs4)n3)cc2)ccc1Cl` (stereo not drawn) is 78.3 µM; for `NCCCCNCCCN1CC1` it is 2.14 µM.
For the compound `O=c1n(/N=C/c2ccccc2)c(=O)n2n1C1C=CC2CC1`, the TGI was more than 100 µM.
The same measure, in the same setting: the value for `COc1ccc(C2c3cc4c(cc3C(O)C3CCC(=O)N23)OCO4)cc1` (stereo not drawn) was more than 100 µM.
`COc1cc2c(cc1OC)-c1[nH]c3ccc(C#N)cc3c1CC(=O)N2` yielded a TGI of more than 100 µM.
In turn, `COc1cc(Br)c(OC)c2c(OC)cc(C)cc12` displayed a TGI of more than 100 µM.
Same read-out and setting: the value for `CCOC(=O)/C(N=Nc1ccc(-n2c(C)nc3ccccc3c2=O)cc1)=C(/C)O` was 63.6 µM; that for `COc1ccc(OC)c2sc(N3C(=O)/C(=C/Cc4ccco4)N=C3c3ccccc3)nc12` was more than 100 µM; that for `CSC1=N[C@H](c2ccccc2)CS1` was more than 100 µM.
